# From patent publication US11174253B2, “Compound and pharmaceutical composition containing the same” (ALPHALA CO., LTD., priority 2017, dated 2021)
# Legend:
# Format in all cases: cell-based
# [1] = test system: NCI-H460 human lung cancer cell line; assay: MTS cell viability assay (NCI-60 methodology), GI50/LC50, NCI-H460; settings: 48 h, NCI-H460 cells, 2 days incubation with compound
# Procedure: (§1) The number of treated cells was determined by GE InCell 2200 system, and treated cells were stained with Hoechst 33342 which can reveal the remained nucleus in culture plate. The proportion of survival cells then were calculated with the ratio of treated/non-treated cells. The growth inhibition/cytotoxic effect of selected compounds were evaluated by the following protocol of NCI-60 screening platform. The human tumor cell lines are plating on a 96 well plate in a fixed density 24 hr prior compound treatment. Compounds with multiple concentrations are then added into each well for further 48 hr incubation. Cell viability is assessed by MTS method and the potency of compound is represented by GI50 and LC50 calculated by MTS result.
# (§2) The cell viability measurement is based on the NCI-60 screening methodology (Nat. Rev. Cancer 6, 813-823, 2006). Briefly, cells are inoculated into 96-well plates at the optimal plating density. After 24 h, one of the two plates for each cell line is processed to determine a time zero cell viability (Tz) by MTS assay (Promega). Compounds are added over a 2-fold serial dilution to provide a total five drug concentrations plus DMSO control. Plates are incubated for a further 2 days, then measured cell viability by MTS assay [control growth (C) and test growth in the presence of drug at the five concentration levels (Ti)]. Growth inhibition of 50% (GI50) is calculated from [(Ti−Tz)/(C−Tz)]×100=50, which is the drug concentration resulting in a 50% reduction of control cells during the drug incubation. The LC50 is calculated from [(Ti−Tz)/Tz]×100=−50, which is the drug concentration resulting in a 50% reduction at the end of the drug treatment as compared to that at the beginning.
# (§3) Herein, Hep3B refers to hepatocellular carcinoma cell line, SW480 refers to colon adenocarcinoma cell line, and NCI-H460 refers to human lung cancer cell line.
# [2] = test system: SW480 colon adenocarcinoma cell line; assay: MTS cell viability assay (NCI-60 methodology), GI50/LC50, SW480; settings: Homo sapiens, 48 h, SW480 cells, 2 days incubation with compound
# Procedure: as §1, §2, §3
# [3] = test system: Hep3B hepatocellular carcinoma cell line; assay: MTS cell viability assay (NCI-60 methodology), GI50/LC50, Hep3B; settings: Homo sapiens, 48 h, Hep3B cells, 2 days incubation with compound
# Procedure: as §1, §2, §3
# [4] = test system: hepatocellular carcinoma cell line Hep3B; assay: Growth inhibition of Hep3B cells, 48 hr treatment, Hoechst 33342 nucleus count (GE InCell 2200); settings: Homo sapiens
# Method in brief: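 Compound exposure lasted 48 hr at 37° C, 5% CO2. Surviving nuclei were counted after Hoechst 33342 staining, and survival was expressed as the treated/non-treated cell number ratio, including the ratio at 10 μM compound.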
# [5] = Table 5, ratio of number of tumor cells treated with 10 μM compound to non-treated cells
Compound,GI50 [1],"LC50 (concentration giving 50% net cell loss versus time zero, NCI-60 definition) [1]",GI50 [2],"LC50 (NCI-60 lethal concentration, 50% net cell loss vs time zero) [2]",GI50 [3],LC50 [3],"viability at 10 µM [4, 5]","viability at 10 µM ([4]; Table 6, ratio of number of tumor cells treated with 10 μM compound to non-treated cells)"
"O=C(Nc1nc(-c2ccc(F)cc2)c(Oc2ccccc2OC(F)(F)F)s1)c1ccc([N+](=O)[O-])s1 [Compound 5-32, N-(4-(4-fluorophenyl)-5-(2-(trifluoromethoxy)phenoxy)thiazol-2-yl)-5-nitrothiophene-2-carboxamide]",690 nM,1730 nM,400 nM,2260 nM,460 nM,2170 nM,48%,–
"CCCOc1ccc(-c2nc(NC(=O)c3ccc([N+](=O)[O-])s3)sc2Oc2ccc(C(F)(F)F)cc2Cl)cc1 [Compound 5-38, N-(5-(2-chloro-4-(trifluoromethyl)phenoxy)-4-(4-propoxyphenyl)thiazol-2-yl)-5-nitrothiophene-2-carboxamide]",570 nM,1430 nM,770 nM,3220 nM,370 nM,1710 nM,41%,–
"CCCOc1ccc(-c2nc(NC(=O)c3ccc([N+](=O)[O-])s3)sc2Oc2ccc(C#N)cc2)cc1 [Compound 5-39, N-(5-(4-cyanophenoxy)-4-(4-propoxyphenyl)thiazol-2-yl)-5-nitrothiophene-2-carboxamide]",230 nM,1160 nM,1490 nM,6540 nM,890 nM,5530 nM,56%,–
"CCCOc1ccc(-c2nc(NC(=O)c3ccc([N+](=O)[O-])o3)sc2Oc2ccccc2)cc1 [Compound 5-48, 5-nitro-N-(5-phenoxy-4-(4-propoxyphenyl)thiazol-2-yl)furan-2-carboxamide]",1400 nM,–,1810 nM,–,5220 nM,9410 nM,37%,–
"CCCCOc1ccc(-c2nc(NC(=O)c3ccc([N+](=O)[O-])s3)sc2Oc2ccccc2)cc1 [Compound 5-56, N-(4-(4-butoxyphenyl)-5-phenoxythiazol-2-yl)-5-nitrothiophene-2-carboxamide]",700 nM,1550 nM,1540 nM,9320 nM,550 nM,2310 nM,40%,–
"CCC(C)(C)c1ccc(Oc2sc(NC(=O)c3ccc([N+](=O)[O-])s3)nc2-c2ccc(F)cc2)cc1 [Compound 5-62, N-(4-(4-fluorophenyl)-5-(4-(tert-pentyl)phenoxy)thiazol-2-yl)-5-nitrothiophene-2-carboxamide]",590 nM,1240 nM,760 nM,2250 nM,450 nM,1160 nM,45%,–
"CCC(C)(C)c1ccc(-c2nc(NC(=O)c3ccc([N+](=O)[O-])s3)sc2Oc2ccc(F)cc2)cc1 [Compound 5-63, N-(5-(4-fluorophenoxy)-4-(4-(tert-pentyl)phenyl)thiazol-2-yl)-5-nitrothiophene-2-carboxamide]",680 nM,1110 nM,880 nM,1850 nM,430 nM,950 nM,37%,–
"CCCCOc1ccc(Oc2sc(NC(=O)c3ccc([N+](=O)[O-])s3)nc2-c2ccc(F)cc2)cc1 [Compound 5-66, N-(5-(4-butoxyphenoxy)-4-(4-fluorophenyl)thiazol-2-yl)-5-nitrothiophene-2-carboxamide]",390 nM,1130 nM,950 nM,2810 nM,520 nM,760 nM,43%,–
"CCCCCCOc1ccc(-c2nc(NC(=O)c3ccc([N+](=O)[O-])s3)sc2Oc2ccccc2)cc1 [Compound 5-67, N-(4-(4-(hexyloxy)phenyl)-5-phenoxythiazol-2-yl)-5-nitrothiophene-2-carboxamide]",790 nM,1350 nM,1030 nM,1910 nM,620 nM,690 nM,46%,–
"CCC(C)(C)c1ccc(Oc2sc(NC(=O)c3ccc([N+](=O)[O-])s3)nc2-c2ccc(C(F)(F)F)cc2)cc1 [Compound 5-71, 5-nitro-N-(5-(4-(tert-pentyl)phenoxy)-4-(4-(trifluoromethyl)phenyl)thiazol-2-yl)thiophene-2-carboxamide]",1530 nM,2400 nM,810 nM,1720 nM,630 nM,660 nM,49%,–
"CC(C)(C)c1ccc(-c2nc(NC(=O)c3ccc([N+](=O)[O-])s3)sc2Oc2ccc(C(F)(F)F)cc2)cc1 [Compound 5-74, N-(4-(4-(tert-butyl)phenyl)-5-(4-(trifluoromethyl)phenoxy)thiazol-2-yl)-5-nitrothiophene-2-carboxamide]",720 nM,1300 nM,690 nM,1290 nM,1160 nM,1680 nM,33%,–
"CC(C)(C)c1ccc(-c2nc(NC(=O)c3ccc([N+](=O)[O-])s3)sc2Oc2ccccc2C(F)(F)F)cc1 [Compound 5-75, N-(4-(4-(tert-butyl)phenyl)-5-(2-(trifluoromethyl)phenoxy)thiazol-2-yl)-5-nitrothiophene-2-carboxamide]",670 nM,1110 nM,730 nM,1670 nM,800 nM,1310 nM,34%,–
"CCCCCOc1ccc(-c2nc(NC(=O)c3ccc([N+](=O)[O-])s3)sc2Oc2ccccc2)cc1 [Compound 5-76, 5-nitro-N-(4-(4-(pentyloxy)phenyl)-5-phenoxythiazol-2-yl)thiophene-2-carboxamide]",740 nM,1520 nM,1270 nM,5820 nM,560 nM,1720 nM,38%,–
"CCCCc1ccc(-c2nc(NC(=O)c3ccc([N+](=O)[O-])s3)sc2Oc2ccccc2F)cc1 [Compound 5-80, N-(4-(4-butylphenyl)-5-(2-fluorophenoxy)thiazol-2-yl)-5-nitrothiophene-2-carboxamide]",840 nM,1750 nM,1460 nM,4170 nM,680 nM,1280 nM,26%,–
"O=C(Nc1nc(-c2ccc(C(F)(F)F)cc2)c(Oc2ccccc2)s1)c1ccc([N+](=O)[O-])s1 [Compound 5-81, 5-nitro-N-(5-phenoxy-4-(4-(trifluoromethyl)phenyl)thiazol-2-yl)thiophene-2-carboxamide]",810 nM,2110 nM,2470 nM,8600 nM,980 nM,4230 nM,30%,–
"O=C(Nc1nc(-c2ccc(OC(F)(F)F)cc2)c(Oc2ccccc2F)s1)c1ccc([N+](=O)[O-])s1 [Compound 5-85, N-(5-(2-fluorophenoxy)-4-(4-(trifluoromethoxy)phenyl)thiazol-2-yl)-5-nitrothiophene-2-carboxamide]",750 nM,1580 nM,1660 nM,5730 nM,870 nM,2540 nM,34%,–
"Cc1ccc(-c2nc(NC(=O)c3ccc([N+](=O)[O-])s3)sc2-c2cc(C(F)(F)F)cc(C(F)(F)F)c2)cc1 [Compound 6-5, N-(5-(3,5-bis(trifluoromethyl)phenyl)-4-(p-tolyl)thiazol-2-yl)-5-nitrothiophene-2-carboxamide]",1120 nM,1630 nM,1200 nM,1410 nM,950 nM,1080 nM,–,46%
